{"source": "patent US5440016A", "about": "“Peptides of the formula (KFmoc) ZZZ and their uses” (priority 1993, dated 1995)", "key": {"[1]": {"system": "Human red blood cells (RBCs)", "assay": "Hemolytic activity", "type": "cell-based", "conditions": "Tables 18-21"}, "[2]": {"system": "Escherichia coli ATCC 25922", "conditions": "Tables 2-5; concentration necessary to inhibit 50% growth", "protocol": "(§1) Escherichia coli ATCC 25922 and P. aeruginosa ATCC 27853 were used as Gram-negative (-) and Staphylococcus aureus ATCC 29213 as Gram-positive (+) bacteria. Bacteria were grown overnight at 37° C. in Mueller-Hinton (MH) broth. This culture was reinoculated and incubated at 37° C. to reach the exponential phase of bacteria growth, i.e., a final bacterial suspension containing 10^5 to 5×10^5 colony-forming units (CFU)/ml. The concentration of cells was established by plating 100 μl of different dilutions of the culture solution (e.g., 10^-2, 10^-3 and 10^-4) onto solid agar plates.\n(§2) Following an overnight incubation at 37° C., the CFU thus formed were counted on each agar plate. In 96-well tissue culture plates, as control blanks, eight wells per plate contained only medium, while as a positive growth control, eight other wells contained medium plus cells.\n(§3) The plates were incubated overnight at 37° C., and the optical density (OD) determined at 620 nm after different times of incubation."}, "[3]": {"system": "Staphylococcus aureus ATCC 29213", "conditions": "Tables 6-9", "protocol": "as §1, §2, §3"}, "[4]": {"system": "Streptococcus sanguis ATCC 10556", "conditions": "Tables 10-13"}, "[5]": {"system": "Candida albicans ATCC 10231", "conditions": "Tables 14-17"}}, "note": "Square brackets hold non-standard residues; d marks the D form. Peptide text beside a SMILES is read from it. * marks the point of attachment. Fmoc = O=C(OCC1c2ccccc2-c2ccccc21)*", "data": [{"compound": "NCCCC[C@H](NC(=O)OCC1c2ccccc2-c2ccccc21)C(=O)N[C@@H](Cc1c[nH]c2ccccc12)C(=O)N[C@@H](Cc1ccc(O)cc1)C(=O)N[C@H](CCCCN)C(N)=O", "note": "[(KFmoc)WYk-NH2] (Fmoc-KWY[dK]-NH2)", "values": [{"measurement": "HD50 (concentration necessary to lyse 50% of the cells)", "setting": "[1]", "value": 62, "unit": "µg/mL"}, {"measurement": "IC50 against E. coli", "setting": "[2]", "value": 18, "unit": "mg/L"}, {"measurement": "IC50 against S. aureus", "setting": "[3]", "value": 5, "unit": "mg/L"}, {"measurement": "IC50 against S. sanguis", "setting": "[4]", "value": 5, "unit": "mg/L"}, {"measurement": "IC50 against C. albicans", "setting": "[5]", "value": 121, "unit": "mg/L"}]}, {"compound": "NCCCC[C@H](NC(=O)OCC1c2ccccc2-c2ccccc21)C(=O)N[C@@H](Cc1c[nH]c2ccccc12)C(=O)N[C@@H](Cc1ccc(O)cc1)C(=O)N1CCC[C@@H]1C(N)=O", "note": "[(KFmoc)WYp-NH2] (Fmoc-KWY[dP]-NH2)", "values": [{"measurement": "HD50 (concentration necessary to lyse 50% of the cells)", "setting": "[1]", "value": 76, "unit": "µg/mL"}, {"measurement": "IC50 against E. coli", "setting": "[2]", "value": 84, "unit": "mg/L"}, {"measurement": "IC50 against S. aureus", "setting": "[3]", "value": 5, "unit": "mg/L"}, {"measurement": "IC50 against S. sanguis", "setting": "[4]", "value": 5, "unit": "mg/L"}, {"measurement": "IC50 against C. albicans", "setting": "[5]", "value": 165, "unit": "mg/L"}]}, {"compound": "N=C(N)NCCC[C@@H](NC(=O)[C@H](Cc1ccc(O)cc1)NC(=O)[C@H](Cc1c[nH]c2ccccc12)NC(=O)[C@H](CCCCN)NC(=O)OCC1c2ccccc2-c2ccccc21)C(N)=O", "note": "[(KFmoc)WYr-NH2] (Fmoc-KWY[dR]-NH2)", "values": [{"measurement": "HD50 (concentration necessary to lyse 50% of the cells)", "setting": "[1]", "value": 31, "unit": "µg/mL"}, {"measurement": "IC50 against E. coli", "setting": "[2]", "value": 16, "unit": "mg/L"}, {"measurement": "IC50 against S. aureus", "setting": "[3]", "value": 4, "unit": "mg/L"}, {"measurement": "IC50 against S. sanguis", "setting": "[4]", "value": 4, "unit": "mg/L"}, {"measurement": "IC50 against C. albicans", "setting": "[5]", "value": 109, "unit": "mg/L"}]}, {"compound": "NCCCC[C@H](NC(=O)OCC1c2ccccc2-c2ccccc21)C(=O)N[C@@H](Cc1c[nH]c2ccccc12)C(=O)N[C@@H](Cc1ccc(O)cc1)C(=O)N[C@H](CO)C(N)=O", "note": "[(KFmoc)WYs-NH2] (Fmoc-KWY[dS]-NH2)", "values": [{"measurement": "HD50 (concentration necessary to lyse 50% of the cells)", "setting": "[1]", "value": 27, "unit": "µg/mL"}, {"measurement": "IC50 against E. coli", "setting": "[2]", "value": 106, "unit": "mg/L"}, {"measurement": "IC50 against S. aureus", "setting": "[3]", "value": 5, "unit": "mg/L"}, {"measurement": "IC50 against S. sanguis", "setting": "[4]", "value": 5, "unit": "mg/L"}, {"measurement": "IC50 against C. albicans", "setting": "[5]", "value": 353, "unit": "mg/L"}]}, {"compound": "C[C@H](O)[C@@H](NC(=O)[C@H](Cc1ccc(O)cc1)NC(=O)[C@H](Cc1c[nH]c2ccccc12)NC(=O)[C@H](CCCCN)NC(=O)OCC1c2ccccc2-c2ccccc21)C(N)=O", "note": "[(KFmoc)WYt-NH2] (Fmoc-KWY[dT]-NH2)", "values": [{"measurement": "HD50 (concentration necessary to lyse 50% of the cells)", "setting": "[1]", "value": 37, "unit": "µg/mL"}, {"measurement": "IC50 against E. coli", "setting": "[2]", "value": 81, "unit": "mg/L"}, {"measurement": "IC50 against S. aureus", "setting": "[3]", "value": 9, "unit": "mg/L"}, {"measurement": "IC50 against S. sanguis", "setting": "[4]", "value": 8, "unit": "mg/L"}, {"measurement": "IC50 against C. albicans", "setting": "[5]", "value": 161, "unit": "mg/L"}]}, {"compound": "CC(C)C[C@@H](NC(=O)[C@@H](Cc1ccccc1)NC(=O)[C@H](Cc1c[nH]c2ccccc12)NC(=O)[C@H](CCCCN)NC(=O)OCC1c2ccccc2-c2ccccc21)C(N)=O", "note": "[(KFmoc)Wfl-NH2] (Fmoc-KW[dF][dL]-NH2)", "values": [{"measurement": "HD50 (concentration necessary to lyse 50% of the cells)", "setting": "[1]", "value": 197, "unit": "µg/mL"}, {"measurement": "IC50 against E. coli", "setting": "[2]", "value": 28, "unit": "mg/L"}, {"measurement": "IC50 against S. aureus", "setting": "[3]", "value": 2, "unit": "mg/L"}, {"measurement": "IC50 against S. sanguis", "setting": "[4]", "value": 2, "unit": "mg/L"}, {"measurement": "IC50 against C. albicans", "setting": "[5]", "value": 127, "unit": "mg/L"}]}, {"compound": "NCCCC[C@H](NC(=O)OCC1c2ccccc2-c2ccccc21)C(=O)N[C@@H](Cc1c[nH]c2ccccc12)C(=O)N[C@H](Cc1ccccc1)C(=O)N1CCC[C@@H]1C(N)=O", "note": "[(KFmoc)Wfp-NH2] (Fmoc-KW[dF][dP]-NH2)", "values": [{"measurement": "HD50 (concentration necessary to lyse 50% of the cells)", "setting": "[1]", "value": 65, "unit": "µg/mL"}, {"measurement": "IC50 against E. coli", "setting": "[2]", "value": 30, "unit": "mg/L"}, {"measurement": "IC50 against S. aureus", "setting": "[3]", "value": 7, "unit": "mg/L"}, {"measurement": "IC50 against S. sanguis", "setting": "[4]", "value": 6, "unit": "mg/L"}, {"measurement": "IC50 against C. albicans", "setting": "[5]", "value": 347, "unit": "mg/L"}]}, {"compound": "N=C(N)NCCC[C@@H](NC(=O)[C@@H](Cc1ccccc1)NC(=O)[C@H](Cc1c[nH]c2ccccc12)NC(=O)[C@H](CCCCN)NC(=O)OCC1c2ccccc2-c2ccccc21)C(N)=O", "note": "[(KFmoc)Wfr-NH2] (Fmoc-KW[dF][dR]-NH2)", "values": [{"measurement": "HD50 (concentration necessary to lyse 50% of the cells)", "setting": "[1]", "value": 42, "unit": "µg/mL"}, {"measurement": "IC50 against E. coli", "setting": "[2]", "value": 15, "unit": "mg/L"}, {"measurement": "IC50 against S. aureus", "setting": "[3]", "value": 2, "unit": "mg/L"}, {"measurement": "IC50 against S. sanguis", "setting": "[4]", "value": 2, "unit": "mg/L"}, {"measurement": "IC50 against C. albicans", "setting": "[5]", "value": 42, "unit": "mg/L"}]}, {"compound": "(KFmoc)WK(dOrn)-NH2", "values": [{"measurement": "HD50 (concentration necessary to lyse 50% of the cells)", "setting": "[1]", "value": 369, "unit": "µg/mL"}, {"measurement": "IC50 against E. coli", "setting": "[2]", "value": 69, "unit": "mg/L"}, {"measurement": "IC50 against S. aureus", "setting": "[3]", "value": 5, "unit": "mg/L"}, {"measurement": "IC50 against S. sanguis", "setting": "[4]", "value": 5, "unit": "mg/L"}, {"measurement": "IC50 against C. albicans", "setting": "[5]", "value": 196, "unit": "mg/L"}]}]}
